Assay results: PubChem BioAssay AID1963958 (Molecular Pharmacology Branch, DTP, NCI, 2024)

Tested on: MDA-MB-231 multicell spheroids, viability
Experiment: Anticancer human tumor MDA-MB-231 cell line growth inhibition [PI3K];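 note: spheroids exposed to agents for seven days before reading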;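 for viability, T/C: percent of vehicle control luminescence with DMSO treated spheroids as 100%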
Settings: for IC50: curve of first compound; for viability, T/C: stronger effect = lower value
Procedure, shortened: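 Spheroid viability read-out. Co-cultures contained the tumor line plus HUVEC and human MSCs. Each agent was paired with a PI3K inhibitor (inavolisib, alpelisib, duvelisib, copanlisib) across half-log dilutions starting at clinical Cmax, or at 10 microM when Cmax was unknown.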

[1] = second compound 0.0316 µM, first compound 0.000316 µM
[2] = second compound 0.0316 µM, first compound 0.001 µM
[3] = second compound 0.0316 µM, first compound 0.00316 µM
[4] = second compound 0.0316 µM, first compound 0.01 µM
[5] = second compound 0.0316 µM, first compound 0.0316 µM
[6] = second compound 0.0316 µM, first compound 0.1 µM
[7] = second compound 0.1 µM, first compound 0.000316 µM
[8] = second compound 0.1 µM, first compound 0.001 µM
[9] = second compound 0.1 µM, first compound 0.00316 µM
[10] = second compound 0.1 µM, first compound 0.01 µM
[11] = second compound 0.1 µM, first compound 0.0316 µM
[12] = second compound 0.1 µM, first compound 0.1 µM
[13] = second compound 0.316 µM, first compound 0.000316 µM
[14] = second compound 0.316 µM, first compound 0.001 µM
[15] = second compound 0.316 µM, first compound 0.00316 µM
[16] = second compound 0.316 µM, first compound 0.01 µM
[17] = second compound 0.316 µM, first compound 0.0316 µM
[18] = second compound 0.316 µM, first compound 0.1 µM
[19] = second compound 1 µM, first compound 0.000316 µM
[20] = second compound 1 µM, first compound 0.001 µM
[21] = second compound 1 µM, first compound 0.00316 µM
[22] = second compound 1 µM, first compound 0.01 µM
[23] = second compound 1 µM, first compound 0.0316 µM
[24] = second compound 1 µM, first compound 0.1 µM
[25] = second compound 3.16 µM, first compound 0.000316 µM
[26] = second compound 3.16 µM, first compound 0.001 µM
[27] = second compound 3.16 µM, first compound 0.00316 µM
[28] = second compound 3.16 µM, first compound 0.01 µM
[29] = second compound 3.16 µM, first compound 0.0316 µM
[30] = second compound 3.16 µM, first compound 0.1 µM
[31] = second compound 10 µM, first compound 0.000316 µM
[32] = second compound 10 µM, first compound 0.001 µM
[33] = second compound 10 µM, first compound 0.00316 µM
[34] = second compound 10 µM, first compound 0.01 µM
[35] = second compound 10 µM, first compound 0.0316 µM
[36] = second compound 10 µM, first compound 0.1 µM

## CC(=O)c1c(C)c2cnc(Nc3ccc(N4CCNCC4)cn3)nc2n(C2CCCC2)c1=O + CC(Nc1ncnc2nc[nH]c12)c1cc2cccc(Cl)c2c(=O)n1-c1ccccc1
Second compound 0.0316 µM
  IC50: > 100 nM
Second compound 0.1 µM
  IC50: 86.2 nM
Second compound 0.316 µM
  IC50: 75.3 nM
Second compound 1 µM
  IC50: 36.1 nM
Second compound 3.16 µM
  IC50: 11.4 nM
Second compound 10 µM
  IC50: < 0.316 nM
[1]
  viability, T/C: 96.8%
[2]
  viability, T/C: 107%
[3]
  viability, T/C: 92.6%
[4]
  viability, T/C: 90.6%
[5]
  viability, T/C: 72.8%
[6]
  viability, T/C: 53.2%
[7]
  viability, T/C: 98.8%
[8]
  viability, T/C: 99.6%
[9]
  viability, T/C: 96.1%
[10]
  viability, T/C: 80.5%
[11]
  viability, T/C: 71.3%
[12]
  viability, T/C: 46.5%
[13]
  viability, T/C: 86.8%
[14]
  viability, T/C: 90%
[15]
  viability, T/C: 92.6%
[16]
  viability, T/C: 83.5%
[17]
  viability, T/C: 66.6%
[18]
  viability, T/C: 44.6%
[19]
  viability, T/C: 79.2%
[20]
  viability, T/C: 79.9%
[21]
  viability, T/C: 78.4%
[22]
  viability, T/C: 65.1%
[23]
  viability, T/C: 52.9%
[24]
  viability, T/C: 36%
[25]
  viability, T/C: 62.5%
[26]
  viability, T/C: 60.1%
[27]
  viability, T/C: 55.3%
[28]
  viability, T/C: 51.1%
[29]
  viability, T/C: 43.1%
[30]
  viability, T/C: 29.6%
[31]
  viability, T/C: 42.6%
[32]
  viability, T/C: 47.5%
[33]
  viability, T/C: 41.2%
[34]
  viability, T/C: 38%
[35]
  viability, T/C: 36.1%
[36]
  viability, T/C: 19%

## CC(C)n1nc(-c2ccc3oc(N)nc3c2)c2c(N)ncnc21 + CC(Nc1ncnc2nc[nH]c12)c1cc2cccc(Cl)c2c(=O)n1-c1ccccc1
Second compound 0.0316 µM
  IC50: 64.4 nM
Second compound 0.1 µM
  IC50: 65.5 nM
Second compound 0.316 µM
  IC50: 51.9 nM
Second compound 1 µM
  IC50: 32.7 nM
Second compound 3.16 µM
  IC50: 12.5 nM
Second compound 10 µM
  IC50: < 0.316 nM
[1]
  viability, T/C: 94.1%
[2]
  viability, T/C: 101%
[3]
  viability, T/C: 93.1%
[4]
  viability, T/C: 85.6%
[5]
  viability, T/C: 65.5%
[6]
  viability, T/C: 40.5%
[7]
  viability, T/C: 101%
[8]
  viability, T/C: 100%
[9]
  viability, T/C: 91.9%
[10]
  viability, T/C: 79.7%
[11]
  viability, T/C: 66.2%
[12]
  viability, T/C: 41%
[13]
  viability, T/C: 91.7%
[14]
  viability, T/C: 90.2%
[15]
  viability, T/C: 87.2%
[16]
  viability, T/C: 72.8%
[17]
  viability, T/C: 58.8%
[18]
  viability, T/C: 39.4%
[19]
  viability, T/C: 80.5%
[20]
  viability, T/C: 78%
[21]
  viability, T/C: 76.1%
[22]
  viability, T/C: 68.5%
[23]
  viability, T/C: 50%
[24]
  viability, T/C: 39.2%
[25]
  viability, T/C: 62.1%
[26]
  viability, T/C: 64.9%
[27]
  viability, T/C: 57.8%
[28]
  viability, T/C: 50.8%
[29]
  viability, T/C: 43.4%
[30]
  viability, T/C: 31.8%
[31]
  viability, T/C: 49.2%
[32]
  viability, T/C: 44.6%
[33]
  viability, T/C: 42.4%
[34]
  viability, T/C: 35.9%
[35]
  viability, T/C: 30.1%
[36]
  viability, T/C: 24.2%
